According to US4496735A, “Certain pyridyloxy-or-thio-phenyl propenoic acid derivatives” (Maruko Seiyaku Co., Ltd., priority 1982, dated 1985):
Counter-ions that a name gives are not always drawn. Like-named read-outs stand apart in the source and are kept apart here.

Experiments:
[1] = system: Arachidonic Acid-Induced Sudden Death; assay: Effect on Arachidonic Acid-Induced Sudden Death in Rabbit; assay type: in vivo, male rabbits; settings: for % Protection / Ratio of Mortality/Total Number: 20 mg/kg i.p. 2 hours before 1.4 mg/kg sodium arachidonate (ear vein); for % Protection: 30 minutes; for Ratio of Mortality/Total Number: mortality at 30 minutes; for protection against the arachidonic acid-induced sudden death in rabbits (in words): conclusion in words
Source text: The compounds of the present invention having the formula (I) and the pharmaceutically acceptable salts thereof thus obtained have a strong inhibitory activity on thromboxane A2 synthetase. A typical in vivo test method for evaluating compounds which may be useful as a so-called anti-thrombotic agent has been reported in literature and this method comprises determining the prevention of sudden death of rabbits caused by arachidonic acid, as reported in, for example, Agents and Actions, 7, 481 (1977); Pharmacology, 14, 522 (1976); Science, 183, 1085 (1974), etc.
More specifically, sodium arachidonate is administered intravenously to rabbits at a dose of about 1.4 mg/kg to cause a sudden death within a few minutes due to platelet aggregation and lung embolus.
According to the method of Silver et al [Science, 183, 1085 (1974)], 20 mg/kg of the test compound was administered intraperitoneally into male rabbits (8 or 10 rabbits per group), each weighing 2.2 to 2.8 kg, and 2 hours after the administration 1.4 mg/kg of sodium arachidonate was administered to the rabbit from an ear vein. The mortality of the rabbits was then calculated 30 minutes after the administration of sodium arachidonate.

ddY male mice = assay: Acute Toxicity; assay type: in vivo; settings: i.p., mortality one week after administration, Behrens-Karber method, 10080 min
Experimental: (§1) The test compound was administered intraperitoneally to ddY male mice weighing 22 to 24 g and LD50 was determined by the Behrens-Karber method [Arch. exp. Path. Pharmak., 177, 379 (1935)] from the mortality one week after administration.

[2] = system: thromboxane A2 synthesis (thromboxane A2 synthetase); assay: Inhibition of Thromboxane A2 Synthesis (collagen-stimulated rabbit platelet-rich plasma, thromboxane B2 by radioimmunoassay); assay type: cell-based; settings: Oryctolagus cuniculus, 5 min, read-out: IC50 on Thromboxane A2 Synthesis
Experimental: Rabbit platelet-rich plasma (PRP, 6×10^8 platelets/ml) and the test compound was pre-incubated at 37° C. for 5 minutes and, after adding collagen to the mixture at a concentration of 13 ug/ml, the resulting mixture was incubated at 37° C. for 5 minutes. Then, the reaction was terminated by rendering the mixture […] with hydrochloric acid and the amount of thromboxane B2 produced was quantitatively determined by the radioimmunoassay.

[3] = system: platelet aggregation (collagen), rabbit platelet-rich plasma; assay: Inhibition of Platelet Aggregation induced by collagen; assay type: cell-based; settings: for IC50: Oryctolagus cuniculus, Platelet, rabbit PRP, collagen 10 ug/ml, 37° C.; for inhibitory activity on platelet aggregation induced by collagen (in words): conclusion in words
Experimental: (§2) Rabbit platelet-rich plasma was pre-incubated at 37° C. for 1 minute and, after adding the test compound, arachidonic acid or collagen was added thereto at a concentration of 100 ug/ml or 10 ug/ml, respectively. The aggregation of platelets was recorded using an aggregometer and shown in Table 2 in terms of IC50 value.

[4] = system: platelet aggregation (arachidonic acid), rabbit platelet-rich plasma; assay: Inhibition of Platelet Aggregation induced by arachidonic acid; assay type: cell-based; settings: for IC50: Oryctolagus cuniculus, Platelet, rabbit PRP, arachidonic acid 100 ug/ml, 37° C.; for inhibitory activity on platelet aggregation induced by arachidonic acid (in words): conclusion in words
Experimental: as §2

Acute Toxicity = assay type: in vivo; settings: mouse, in vivo, ip; ddY male mice; i.p.; mortality one week after administration; Behrens-Karber method
Experimental: as §1

[5] = rabbit PRP, 6×10^8 platelets/ml, collagen 13 ug/ml, 37° C., 5 minutes

| Compound | % Protection [1] | Ratio of Mortality/Total Number [1] | LD50 (ddY male mice) | IC50 [2] | IC50 [3] | inhibitory activity on platelet aggregation induced by collagen (in words) [3] | IC50 [4] | inhibitory activity on platelet aggregation induced by arachidonic acid (in words) [4] | IC50 [2, 5] | LD50 at 168 h (Acute Toxicity) | protection against the arachidonic acid-induced sudden death in rabbits (in words) [1] |
| --- | --- | --- | --- | --- | --- | --- | --- | --- | --- | --- | --- |
| CCCCCCCCCn1ccnc1 [Compound A, Nonylimidazole, reference compound] | 50% | 5/10 | 59 mg/kg |  |  |  |  |  |  |  |  |
| Cl.O=C(O)c1ccc(OCCn2ccnc2)cc1 [Compound B, 4-(2-Imidazol-1-ylethoxy)benzoic acid hydrochloride, reference compound] |  |  |  | 5.7 µM | 400 µM | very weak inhibitory activity | > 1000 µM | very weak inhibitory activity |  |  |  |
| CC(=Cc1ccc(Cc2cccnc2)cc1)C(=O)O.Cl [Compound C, 2-Methyl-3-[4-(3-pyridylmethyl)phenyl]propenoic acid hydrochloride, reference compound] |  |  |  |  | 420 µM | very weak inhibitory activity | > 1000 µM | very weak inhibitory activity | 0.22 µM | 220 mg/kg |  |
| CC(=Cc1ccc(Oc2cccnc2)cc1)C(=O)O.Cl [Compound D, 2-Methyl-3-[4-(3-pyridyloxy)phenyl]propenoic acid hydrochloride] | 100% | 0/10 |  |  | 36 µM |  |  |  | 1 µM | 350 mg/kg | strong protection |
| CC(=Cc1ccc(Oc2cccnc2)cc1)C(=O)NC1CCCCC1.Cl [Compound E, N-Cyclohexyl-2-methyl-3-[4-(3-pyridyloxy)phenyl]propenamide hydrochloride] | 75% | 2/8 |  |  | 47 µM |  | 31 µM |  | 5.9 µM | 210 mg/kg | strong protection |
| CC(=Cc1ccc(Sc2ccncc2)cc1)C(=O)O [Compound F, 2-Methyl-3-[4-(4-pyridylthio)phenyl]propenoic acid hydrochloride] |  |  |  |  | 22 µM |  |  |  | 0.31 µM |  |  |
| CC(=Cc1ccc(Oc2cccnc2)cc1)C(N)=O.Cl [Compound G, 2-Methyl-3-[4-(3-pyridyloxy)phenyl]propenamide hydrochloride] |  |  |  |  | 56 µM |  | 335 µM |  | 0.56 µM | 310 mg/kg |  |
